In patent publication US20190048052A1, “ANTI-MICROBIAL PEPTIDES AND COATINGS” (Board of Regents of the University of Nebraska, priority 2016, published 2019):
Values after ≈ are worked out from the molar mass of the structure shown. Residues, ends and D or L forms follow the SMILES beside them.

Tests used:
[1] = test system: HeLa CCL-2 cells; assay: Cytotoxicity of PET-CysTetraF2W-RR (MTS); assay type: cell-based, human
Method: HeLa CCL-2 cells from American Type Culture Collection (ATCC) were maintained in DMEM high glucose media with 4 mM L-glutamine (NyClone) and 100 U/mL penicillin, 100 μg/mL streptomycin (pen/strep; p/s) (Life Technologies), and 10% (v/v) inactivated fetal bovine serum (FBS, NyClone), DMEM with 10% FBS, p/s. Cells were grown in 5% CO2 at 37° C. and were detached from culturing dish at 100% confluency using 0.025% trypsin-EDTA (NyClone) treatment, seeded (18,000 cells/well) in 24-well plates (Corning Life Science) and grown overnight in 200 μL DMEM media until 70% confluency. Then the old media were replaced with 500 μL of fresh DMEM media and continued to cultivate for 1 hour with the surfaces with or without peptides (1.0×1.0 cm). 200 μL of the liquid content of each well was taken out and mixed with 20 μL of MTS. The plate was further incubated for another 2 hours at 37° C. To quantify the cytotoxicity, 100 μL of the solution was placed in a 96-well plate and the absorbance was measured on a ChroMate® reader (Awareness Technology) at 492 nm. For comparison, the same amounts of soluble peptides was used to treat them in the same way as described above. Water and 0.2% SDS were used as negative and positive controls, respectively.

[2] = test system: human red blood cells; assay: Hemolytic ability (Example 3); assay type: cell-based; conditions: concentration that causes 50% hemolysis
Method: Hemolytic analysis of selected peptides was performed using an established protocol. Briefly, human blood cells (UNMC Blood Bank) were washed three times with phosphate buffer saline (PBS) and diluted to a 2% solution. After peptide treatment, incubation at 37° C. for one hour, and centrifugation at 13,000 rpm, aliquots of the supernatant were transferred to a fresh 96-well microplate. To assess peptide cytotoxicity, the amount of hemoglobin released was measured at 545 nm. The percent lysis was calculated by assuming 100% release when human blood cells were treated with 1% TRITON™ X-100, and 0% release when incubated with PBS buffer.

[3] = test system: S. aureus USA300; assay type: cell-based, Staphylococcus aureus
Method: (§1) The antimicrobial activity of peptides was evaluated using a standard broth microdilution protocol. In brief, exponential phase bacteria at 10^6 CFU were incubated with serially diluted peptides overnight for ˜20 hours at 37° C. The plates were read on a ChroMate® 4300 Microplate Reader at 630 nm (GMI, Ramsey, Minn.).

[4] = test system: E. coli ATCC 25922; assay type: cell-based, Escherichia coli; conditions: ATCC 25922, 20 h
Method: as §1

[5] = test system: S. aureus USA300; assay: Growth inhibition in TSB media (FIG. 15A); assay type: cell-based, Staphylococcus aureus; conditions: 3.1 μM (printed 3.1 LM), 37° C.
Method: FIGS. 15A and 15B show the growth inhibition (FIG. 15A) and propidium iodide-based membrane permeation (FIG. 15B) of S. aureus USA300 in TSB media by 3.1 μM of TetraF2W-RR and its single arginine variants (Table 8) at 37° C. with shaking at 100 rpm.
Fluorescence spectroscopy was also used to follow bacterial killing. In brief, μL of serially diluted 10× peptide concentrations were done in 96-well coming COSTAR microtiter plates. Propidium iodide at a fixed concentration of 20 μM per well was added to each well which was finally incubated with 88 μL of S. aureus USA300 (with a final OD600 0.1) with continuous shaking at 100 rpm with meander corner well shaking, 37° C. in a FLUOstar® Omega (BMG LABTECH Inc., NC) microplate reader. The plates were read every 5 minutes for a total duration of 2 hours with excitation and emission wavelengths at 584 nm and 620 nm, respectively.

[6] = test system: S. aureus USA300; assay type: cell-based, Staphylococcus aureus; conditions: 12.5 μM
Method: Two types of experiments were conducted to evaluate the anti-biofilm activity of these peptides against S. aureus USA300 grown under a static condition for 24 hours to form established biofilms in presence of tryptic soy broth (TSB). The experiment was set up using a flat bottom, 96-well, polystyrene microtiter plates (Corning, COSTAR). In short, S. aureus USA300 (10^5 CFU/mL) in fresh TSB media was made from an exponentially growing culture. 200 μL of this bacterial culture was added to each well of the microtiter plates. The plates are then incubated at 37° C. for 24 hours to allow biofilm formation. Media was then carefully removed followed by washing with sterile 1×PBS to remove any unattached bacteria. Solution containing μL of 10× peptide solution and 180 μL of fresh TSB were added. The plates were again incubated at 37° C. for another 24 hours. To measure the extent of biofilm disruption by the peptides as a function of biofilm reduction, crystal violet staining was performed. Media was pipetted out and the wells were carefully washed with 200 μL of PBS to remove the loosely attached cells. Subsequently, 200 μL of 99% methanol was added for fixation and the plates were allowed to sit for 15 minutes. The plates were finally aspirated and dried. Lastly, staining was done with 200 μL of 1% crystal violet in water for 5 minutes. Excess stain was gently rinsed off with tap water, and plates were air-dried. Further, stains were solubilized in 200 μL of 33% glacial acetic acid followed by colorimetric measurement at 600 nm on a Chromate® microtiter plate reader. The amounts of biofilm growth with and without compound treatments were calculated.
In addition, live cell contents of the peptide acted biofilms was estimated by XTT [2,3-bis(2-methyloxy-4-nitro-5-sulfophenyl)-2H-tertazolium-5-carboxanilide]assay by following the manufacturer's instructions with modifications. A 10% XTT solution in TSB media was added to each well and the plates were again incubated for 2 hours at 37° C. Absorbance at 450 nm (only media with XTT containing wells served as the blank) was obtained using Chromate® microtiter plate reader. Percentage of biofilm reduction for the peptide was plotted assuming 100% biofilm growth is achieved on the bacterial wells without peptide treatment.

[7] = test system: S. aureus ATCC 25923; conditions: Abbassi et al. (2010); cited from earlier work
[8] = test system: E. coli ATCC 35218; conditions: Abbassi et al. (2010); cited from earlier work
[9] = test system: S. aureus USA300; assay type: cell-based, Staphylococcus aureus; conditions: Table 2, first S. aureus USA300 column
Summary of the method: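 Broth microdilution: exponential-phase bacteria at 10^6 CFU incubated with serially diluted peptides ~20 hours at 37° C, read at 630 nm to give MICs. For S. aureus USA300, effects of up to 10% human serum, pH 6.8/7.4/8.0 and 150 mM NaCl also tested.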

[10] = test system: E. coli ATCC 25922 and ML-35p strains; conditions: Abbassi et al. (2010); cited from earlier work
[11] = test system: B. megaterium; conditions: Abbassi et al. (2010); cited from earlier work

CC[C@H](C)[C@H](NC(=O)[C@H](CCCNC(=N)N)NC(=O)[C@H](CCCNC(=N)N)NC(=O)[C@H](CC(C)C)NC(=O)[C@H](Cc1c[nH]c2ccccc12)NC(=O)[C@H](Cc1c[nH]c2ccccc12)NC(=O)[C@H](Cc1c[nH]c2ccccc12)NC(=O)[C@@H](N)CS)C(=O)N[C@@H](Cc1c[nH]c2ccccc12)C(N)=O [CysTetraF2W-RR] (H-CWWWLRRIW-NH2; N-terminus and C-terminus assumed)
toxicity to HeLa CCL-2 cells [1]: nontoxic

CC[C@H](C)[C@H](NC(=O)[C@H](CCCNC(=N)N)NC(=O)[C@H](CCCNC(=N)N)NC(=O)[C@H](CCCNC(=N)N)NC(=O)[C@H](Cc1c[nH]c2ccccc12)NC(=O)[C@H](Cc1c[nH]c2ccccc12)NC(=O)[C@@H](N)Cc1c[nH]c2ccccc12)C(=O)N[C@@H](Cc1c[nH]c2ccccc12)C(N)=O [Peptide L4R, WWWRRRIW] (H-WWWRRRIW-NH2; N-terminus assumed)
HL50 [2]: >200 µM | loss in activity compared to the WT ([3]; MRSA USA300): four-fold | S. aureus (MIC) ([3]; S. aureus USA300): 12.5 µM | E. coli (MIC) [4]: 25 µM | growth inhibition of S. aureus USA300 [5]: also potent | killing in preformed biofilms (XTT) [6]: 20%

CC[C@H](C)[C@H](NC(=O)[C@H](CCCNC(=N)N)NC(=O)[C@H](CO)NC(=O)[C@H](CC(C)C)NC(=O)[C@H](Cc1ccccc1)NC(=O)[C@H](Cc1ccccc1)NC(=O)[C@@H](N)Cc1ccccc1)C(=O)N[C@@H](Cc1ccccc1)C(N)=O [Temporin-SHf, FFFLSRIF] (H-FFFLSRIF-NH2; N-terminus and C-terminus assumed)
MIC S. aureus ATCC 25923 [7]: 12.5 µM (≈ 13.4 µg/mL) | MIC E. coli ATCC 35218 [8]: > 200 µM | MIC S. aureus USA300 [9]: 25 µM (≈ 26.9 µg/mL) | MIC E. coli ATCC 25922 and ML-35p strains [10]: 25 to 30 µM | MIC B. megaterium [11]: 3 µM (≈ 3.23 µg/mL)
